Measured values reported in US4791118A, “Quinolonecarboxylic acid derivatives and their preparation” (Kyorin Pharmaceutical Co., Ltd., priority 1985, dated 1988).
≈ marks a conversion by molar mass, not a printed value. Like-named read-outs stand apart in the source and are kept apart here.

Columns and labels:
[1] = test system: S. pyogenes 3102; assay: MIC, clinical isolates; assay type: cell-based; conditions: Streptococcus pyogenes; clinical isolate S. pyogenes 3102; 10^6 cells/ml
[2] = test system: S. pyogenes IID 692; assay: MIC, aerobic bacteria; assay type: cell-based; conditions: Streptococcus pyogenes, IID692, Gram +, 10^6 cells/ml
[3] = test system: E. faecalis 214; assay: MIC, clinical isolates; assay type: cell-based; conditions: Enterococcus faecalis; clinical isolate E. faecalis 214; 10^6 cells/ml
[4] = test system: S. pyogenes 4340; assay: MIC, clinical isolates; assay type: cell-based; conditions: Streptococcus pyogenes; clinical isolate S. pyogenes 4340; 10^6 cells/ml
[5] = test system: S. agalactiae 4470; assay: MIC, clinical isolates; assay type: cell-based; conditions: Streptococcus agalactiae; clinical isolate S. agalactiae 4470; 10^6 cells/ml
[6] = test system: Propionibacterium acens 11828; assay: MIC, anaerobic bacteria; assay type: cell-based
[7] = test system: S. agalactiae 4368; assay: MIC, clinical isolates; assay type: cell-based; conditions: Streptococcus agalactiae; clinical isolate S. agalactiae 4368; 10^6 cells/ml
[8] = test system: Shigella sonnei IID 969; assay: microbe, parasite or virus in culture; conditions: IID969
[9] = test system: Alcaligenes faecalis 0114002; assay: MIC, aerobic bacteria
[10] = test system: E. faecalis IID 682; assay: MIC, aerobic bacteria; assay type: cell-based; conditions: Enterococcus faecalis, IID682, Gram +, 10^6 cells/ml
[11] = test system: Clostridium difficile I-E; assay: MIC, anaerobic bacteria; assay type: cell-based; conditions: Clostridioides difficile, Gram +, 10^6 cells/ml
Description: (§1) | Organism (10^6 cells/ml)

[12] = test system: B. distasonis 8503; assay: MIC, anaerobic bacteria; assay type: cell-based; conditions: Parabacteroides distasonis, Gram -, 10^6 cells/ml
Description: as §1

[13] = test system: B. fragilis 25285; assay: MIC, anaerobic bacteria; assay type: cell-based; conditions: Bacteroides fragilis, Gram -, 10^6 cells/ml
Description: as §1

[14] = test system: B. vulgatus KYA 29327; assay: MIC, anaerobic bacteria; assay type: cell-based; conditions: Phocaeicola vulgatus, KYA29327, Gram -, 10^6 cells/ml
Description: as §1

[15] = test system: Fusobacterium mortiferum 4249; assay: MIC, anaerobic bacteria; assay type: cell-based; conditions: Gram -, 10^6 cells/ml
Description: as §1

[16] = test system: B. fragilis 0558; assay: MIC, anaerobic bacteria; assay type: cell-based; conditions: Bacteroides fragilis, Gram -, 10^6 cells/ml
Description: as §1

[17] = test system: Peptococcus magnus KY 017; assay: MIC, anaerobic bacteria; assay type: cell-based; conditions: Finegoldia magna, KY017, Gram +, 10^6 cells/ml
Description: as §1

[18] = test system: Veillonella parvula KYA 10790; assay: MIC, anaerobic bacteria; assay type: cell-based; conditions: KYA10790, Gram -, 10^6 cells/ml
Description: as §1

[19] = test system: Bacteroides fragilis GM 7000; assay: MIC, anaerobic bacteria; assay type: cell-based; conditions: GM7000, Gram -, 10^6 cells/ml
Description: as §1

[20] = test system: Pst. micros UPI 5464-1; assay: MIC, anaerobic bacteria; assay type: cell-based; conditions: Parvimonas micra, UPI54641, Gram +, 10^6 cells/ml
Description: as §1

[21] = test system: F. nucleatum; assay: MIC, anaerobic bacteria; assay type: cell-based; conditions: Fusobacterium nucleatum, Gram -, 10^6 cells/ml
Description: as §1

[22] = test system: S. pneumoniae 4288; assay: MIC, clinical isolates; assay type: cell-based; conditions: Streptococcus pneumoniae; clinical isolate S. pneumoniae 4288; 10^6 cells/ml
[23] = test system: S. pyogenes 3131; assay: MIC, clinical isolates; assay type: cell-based; conditions: Streptococcus pyogenes; clinical isolate S. pyogenes 3131; 10^6 cells/ml
[24] = test system: S. pneumoniae 17; assay: MIC, clinical isolates; assay type: cell-based; conditions: Streptococcus pneumoniae; clinical isolate S. pneumoniae 17; 10^6 cells/ml
[25] = test system: Enterobacter cloacae IID 977; assay: MIC, aerobic bacteria; conditions: IID977
[26] = test system: S. agalactiae 4394; assay: microbe, parasite or virus in culture; conditions: Streptococcus agalactiae
[27] = test system: F. varium KYA 8501; assay: microbe, parasite or virus in culture; conditions: Fusobacterium varium, KYA8501
[28] = test system: E. lentum GAI 5242; assay: microbe, parasite or virus in culture; conditions: Eggerthella lenta, GAI5242
[29] = test system: S. pneumoniae 15; assay: MIC, clinical isolates; assay type: cell-based; conditions: Streptococcus pneumoniae; clinical isolate S. pneumoniae 15; 10^6 cells/ml
[30] = test system: Staphylococcus aureus 209 P; assay: microbe, parasite or virus in culture
[31] = test system: P. cepacia GIFU 518; assay: microbe, parasite or virus in culture; conditions: Burkholderia cepacia, GIFU518
[32] = test system: Pseudomonas aeruginosa V-1; assay: MIC, aerobic bacteria; conditions: V1
[33] = test system: S. agalactiae 4342; assay: MIC, clinical isolates; assay type: cell-based; conditions: Streptococcus agalactiae; clinical isolate S. agalactiae 4342; 10^6 cells/ml
[34] = test system: E. faecalis 604; assay: MIC, clinical isolates; assay type: cell-based; conditions: Enterococcus faecalis; clinical isolate E. faecalis 604; 10^6 cells/ml
[35] = test system: E. faecalis 402; assay: microbe, parasite or virus in culture; conditions: Enterococcus faecalis
[36] = test system: E. coli ML 4707; assay: MIC, aerobic bacteria; assay type: cell-based; conditions: Escherichia coli, ML4707, Gram -, 10^6 cells/ml
[37] = test system: E. faecalis 49; assay: MIC, clinical isolates; assay type: cell-based; conditions: Enterococcus faecalis; clinical isolate E. faecalis 49; 10^6 cells/ml
[38] = test system: C. ramosum; assay: MIC, anaerobic bacteria; conditions: Thomasclavelia ramosa
[39] = test system: S. marcescens GN 7577; assay: MIC, aerobic bacteria; assay type: cell-based; conditions: Serratia marcescens, GN7577, Gram -, 10^6 cells/ml

Row | SMILES | MIC [1] [mg/L] | MIC [2] [mg/L] | MIC [3] [mg/L] | MIC [4] [mg/L] | MIC [5] [mg/L] | MIC [7] [mg/L] | MIC [8] [mg/L] | MIC [9] [mg/L] | MIC [10] [mg/L] | MIC [11] [mg/L] | MIC [12] [mg/L] | MIC [13] [mg/L] | MIC [14] [mg/L] | MIC [15] [mg/L] | MIC [16] [mg/L] | MIC [17] [mg/L] | MIC [18] [mg/L] | MIC [19] [mg/L] | MIC [20] [mg/L] | MIC [21] [mg/L] | also measured
1 | O=C(O)c1cn(C2CC2)c2c(F)c(N3CCC(CNCCF)C3)c(F)cc2c1=O (stereo not drawn) [Exp. 2, 1-Cyclopropyl-7-[3-(2-fluoroethyl)aminomethyl-1-pyrrolidinyl]-6,8-difluoro-1,4-dihydro-4-oxo-3-quinolinecarboxylic acid] | 0.05 (≈ 0.122 µM) | 0.1 (≈ 0.244 µM) | 0.05 (≈ 0.122 µM) | 0.05 (≈ 0.122 µM) | 0.05 (≈ 0.122 µM) | 0.05 (≈ 0.122 µM) | 0.0125 (≈ 0.0305 µM) | 0.39 (≈ 0.953 µM) | 0.1 (≈ 0.244 µM) | 0.78 (≈ 1.91 µM) | 0.78 (≈ 1.91 µM) | 0.39 (≈ 0.953 µM) | 0.39 (≈ 0.953 µM) | 0.2 (≈ 0.489 µM) | 0.39 (≈ 0.953 µM) | ≤ 0.05 | 0.2 (≈ 0.489 µM) | 0.39 (≈ 0.953 µM) | 0.2 (≈ 0.489 µM) | 0.2 (≈ 0.489 µM) | MIC ([6]; Propionibacterium acens 11828, anaerobic, Gram +, 10^6 cells/ml, read-out: MIC): 1.56 mg/L (≈ 3.81 µM); MIC [22]: 0.05 mg/L (≈ 0.122 µM); MIC [23]: 0.05 mg/L (≈ 0.122 µM); MIC [24]: 0.05 mg/L (≈ 0.122 µM); MIC [25]: 0.1 mg/L (≈ 0.244 µM); MIC [26]: 0.1 mg/L (≈ 0.244 µM); MIC [27]: 0.78 mg/L (≈ 1.91 µM); MIC [28]: 0.39 mg/L (≈ 0.953 µM); MIC [29]: 0.05 mg/L (≈ 0.122 µM); MIC [30]: 0.0125 mg/L (≈ 0.0305 µM); MIC [31]: 0.78 mg/L (≈ 1.91 µM); MIC [32]: 0.39 mg/L (≈ 0.953 µM); MIC [33]: 0.05 mg/L (≈ 0.122 µM); MIC [34]: 0.1 mg/L (≈ 0.244 µM); MIC [35]: 0.1 mg/L (≈ 0.244 µM); MIC [36]: 0.025 mg/L (≈ 0.0611 µM); MIC [37]: 0.05 mg/L (≈ 0.122 µM); MIC [38]: 0.39 mg/L (≈ 0.953 µM); MIC [39]: 1.56 mg/L (≈ 3.81 µM)
2 | O=C(O)c1cn(C2CC2)c2c(Cl)c(N3CCC(CNCCF)C3)c(F)cc2c1=O (stereo not drawn) [Exp. 1, 8-Chloro-1-cyclopropyl-6-fluoro-7-[3-(2-fluoroethyl)aminomethyl-1-pyrrolidinyl]-1,4-dihydro-4-oxo-3-quinolinecarboxylic acid] | 0.025 (≈ 0.0587 µM) | 0.05 (≈ 0.117 µM) | 0.05 (≈ 0.117 µM) | 0.025 (≈ 0.0587 µM) | 0.025 (≈ 0.0587 µM) | 0.025 (≈ 0.0587 µM) | 0.0125 (≈ 0.0294 µM) | 0.39 (≈ 0.916 µM) | 0.05 (≈ 0.117 µM) | 0.2 (≈ 0.47 µM) | 0.2 (≈ 0.47 µM) | ≤ 0.05 | ≤ 0.05 | ≤ 0.05 | ≤ 0.05 | ≤ 0.05 | 0.1 (≈ 0.235 µM) | ≤ 0.05 | 0.1 (≈ 0.235 µM) | ≤ 0.05 | MIC ([6]; Propionibacterium, 11828): 0.78 mg/L (≈ 1.83 µM); MIC [22]: 0.025 mg/L (≈ 0.0587 µM); MIC [23]: 0.025 mg/L (≈ 0.0587 µM); MIC [24]: 0.025 mg/L (≈ 0.0587 µM); MIC [25]: 0.1 mg/L (≈ 0.235 µM); MIC [26]: 0.1 mg/L (≈ 0.235 µM); MIC [27]: 0.39 mg/L (≈ 0.916 µM); MIC [28]: 0.1 mg/L (≈ 0.235 µM); MIC [29]: 0.025 mg/L (≈ 0.0587 µM); MIC [30]: ≤ 0.0063 mg/L; MIC [31]: 0.78 mg/L (≈ 1.83 µM); MIC [32]: 0.39 mg/L (≈ 0.916 µM); MIC [33]: 0.05 mg/L (≈ 0.117 µM); MIC [34]: 0.05 mg/L (≈ 0.117 µM); MIC [35]: 0.1 mg/L (≈ 0.235 µM); MIC [36]: 0.0125 mg/L (≈ 0.0294 µM); MIC [37]: 0.05 mg/L (≈ 0.117 µM); MIC [38]: 0.1 mg/L (≈ 0.235 µM); MIC [39]: 1.56 mg/L (≈ 3.66 µM)
